The text below walks through data of article PMC9611727, “Optimization of a Novel Mandelamide-Derived Pyrrolopyrimidine Series of PERK Inhibitors” (Pharmaceutics, 2022).

The target in one data set is T1, KIT(L576P) (Homo sapiens, UniProt P10721, L576P).
T1 construct: purchased DiscoverX scanMAX
Put plainly: scanMAX kinase panel. The data set is classed as binding. The note with it: read-out: % Control; for remaining binding at 1 µM: 1000 nM. An excerpt:
(§1) Supplemental Table S2. scanMAXSM Kinome Assay Results. Complete tabulated data of all 468 kinases from the panel, including
(§2) 403 wild-type and 65 mutant isoforms. […] Cmpd 11 and Cmpd 24

In a further data set the target is T2, AURKB (Homo sapiens, UniProt Q96GD4).
T2 construct: purchased DiscoverX scanMAX
T2 sequence (Q96GD4 whole entry): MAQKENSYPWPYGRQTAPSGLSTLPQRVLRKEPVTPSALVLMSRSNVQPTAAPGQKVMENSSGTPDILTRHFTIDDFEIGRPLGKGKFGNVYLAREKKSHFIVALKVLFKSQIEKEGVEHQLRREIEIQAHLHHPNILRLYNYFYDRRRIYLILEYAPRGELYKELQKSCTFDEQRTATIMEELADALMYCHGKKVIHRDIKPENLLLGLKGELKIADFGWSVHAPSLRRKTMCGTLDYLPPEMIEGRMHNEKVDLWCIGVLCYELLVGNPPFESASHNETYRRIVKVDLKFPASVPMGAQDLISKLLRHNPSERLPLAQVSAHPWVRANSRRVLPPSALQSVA
Put plainly: scanMAX kinase panel. The data set is classed as binding. The note with it: read-out: % Control; for remaining binding at 1 µM: 1000 nM.
Text: as §1, §2

The target of the next data set is T3, PIK3CA(E542K) (Homo sapiens, UniProt P42336, E542K).
T3 construct: purchased DiscoverX scanMAX
T3 sequence (P42336 whole entry E542K): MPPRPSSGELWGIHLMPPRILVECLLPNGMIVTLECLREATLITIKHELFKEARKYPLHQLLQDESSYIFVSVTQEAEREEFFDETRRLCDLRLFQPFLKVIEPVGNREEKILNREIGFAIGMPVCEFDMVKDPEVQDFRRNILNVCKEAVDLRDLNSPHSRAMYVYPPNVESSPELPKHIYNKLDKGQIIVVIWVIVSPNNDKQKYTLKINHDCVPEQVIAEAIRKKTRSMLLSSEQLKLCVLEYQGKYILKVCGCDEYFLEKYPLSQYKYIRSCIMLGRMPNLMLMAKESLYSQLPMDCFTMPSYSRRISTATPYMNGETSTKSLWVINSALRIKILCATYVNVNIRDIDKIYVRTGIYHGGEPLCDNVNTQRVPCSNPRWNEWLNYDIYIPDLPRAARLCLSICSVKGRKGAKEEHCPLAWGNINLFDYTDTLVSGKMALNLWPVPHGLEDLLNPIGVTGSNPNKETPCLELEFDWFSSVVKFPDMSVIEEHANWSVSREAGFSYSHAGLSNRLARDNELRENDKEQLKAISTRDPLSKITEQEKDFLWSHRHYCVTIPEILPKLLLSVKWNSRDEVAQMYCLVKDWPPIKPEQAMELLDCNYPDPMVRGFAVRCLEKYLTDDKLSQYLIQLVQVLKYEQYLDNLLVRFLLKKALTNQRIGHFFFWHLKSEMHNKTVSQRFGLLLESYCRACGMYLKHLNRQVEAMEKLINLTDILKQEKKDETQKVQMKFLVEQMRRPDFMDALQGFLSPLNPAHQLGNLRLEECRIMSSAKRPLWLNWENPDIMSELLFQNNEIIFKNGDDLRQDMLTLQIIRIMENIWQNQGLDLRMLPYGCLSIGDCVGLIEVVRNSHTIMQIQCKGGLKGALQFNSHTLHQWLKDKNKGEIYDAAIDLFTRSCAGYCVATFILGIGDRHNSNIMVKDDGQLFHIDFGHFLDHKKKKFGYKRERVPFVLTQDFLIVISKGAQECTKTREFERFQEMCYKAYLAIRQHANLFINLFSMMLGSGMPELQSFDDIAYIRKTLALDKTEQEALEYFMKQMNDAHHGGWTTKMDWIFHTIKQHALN
Briefly: scanMAX kinase panel. The data set is classed as binding. The note with it: read-out: % Control; for remaining binding at 1 µM: 1000 nM.
Text: as §1, §2

In the next data set the target is T4, FLT3(D835H) (Homo sapiens, UniProt P36888, D835H).
T4 construct: purchased DiscoverX scanMAX
T4 sequence (P36888 27-993 D835H): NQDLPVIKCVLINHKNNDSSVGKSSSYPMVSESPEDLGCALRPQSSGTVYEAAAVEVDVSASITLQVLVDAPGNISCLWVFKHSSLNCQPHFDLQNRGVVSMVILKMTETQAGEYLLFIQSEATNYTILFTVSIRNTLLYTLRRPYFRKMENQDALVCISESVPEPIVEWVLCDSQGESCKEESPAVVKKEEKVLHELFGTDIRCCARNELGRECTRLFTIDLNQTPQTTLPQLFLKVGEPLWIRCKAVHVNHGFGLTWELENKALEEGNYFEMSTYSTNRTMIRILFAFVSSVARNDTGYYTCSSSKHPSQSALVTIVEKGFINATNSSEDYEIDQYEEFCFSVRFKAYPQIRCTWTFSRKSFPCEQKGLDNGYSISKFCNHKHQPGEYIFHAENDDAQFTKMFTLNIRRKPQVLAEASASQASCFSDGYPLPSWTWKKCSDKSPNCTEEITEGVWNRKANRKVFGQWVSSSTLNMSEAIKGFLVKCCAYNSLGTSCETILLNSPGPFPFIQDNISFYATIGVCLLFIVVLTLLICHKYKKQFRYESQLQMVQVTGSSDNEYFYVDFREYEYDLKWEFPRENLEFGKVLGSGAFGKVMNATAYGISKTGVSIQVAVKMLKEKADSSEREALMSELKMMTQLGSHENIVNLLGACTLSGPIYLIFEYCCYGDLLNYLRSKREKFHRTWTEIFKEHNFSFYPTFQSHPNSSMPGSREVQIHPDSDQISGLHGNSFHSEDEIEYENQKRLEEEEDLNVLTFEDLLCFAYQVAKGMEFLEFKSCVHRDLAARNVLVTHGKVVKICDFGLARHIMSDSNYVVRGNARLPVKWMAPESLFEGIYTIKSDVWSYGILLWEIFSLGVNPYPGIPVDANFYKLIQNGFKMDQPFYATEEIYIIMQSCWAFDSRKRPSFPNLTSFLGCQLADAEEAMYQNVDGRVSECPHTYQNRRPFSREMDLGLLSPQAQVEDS
Put plainly: scanMAX kinase panel. Type of data set: binding. Conditions: read-out: % Control; for remaining binding at 1 µM: 1000 nM.
Text: as §1, §2

The next data set concerns the target T5, PIK4CB (Homo sapiens, UniProt Q9UBF8).
T5 construct: purchased DiscoverX scanMAX
Put plainly: scanMAX kinase panel. Conditions: read-out: % Control; for remaining binding at 1 µM: 1000 nM. The data set is classed as binding.
Text: as §1, §2

The target in a further data set is T6, CDK8 (Homo sapiens, UniProt P49336).
T6 construct: purchased DiscoverX scanMAX
T6 sequence (P49336 whole entry): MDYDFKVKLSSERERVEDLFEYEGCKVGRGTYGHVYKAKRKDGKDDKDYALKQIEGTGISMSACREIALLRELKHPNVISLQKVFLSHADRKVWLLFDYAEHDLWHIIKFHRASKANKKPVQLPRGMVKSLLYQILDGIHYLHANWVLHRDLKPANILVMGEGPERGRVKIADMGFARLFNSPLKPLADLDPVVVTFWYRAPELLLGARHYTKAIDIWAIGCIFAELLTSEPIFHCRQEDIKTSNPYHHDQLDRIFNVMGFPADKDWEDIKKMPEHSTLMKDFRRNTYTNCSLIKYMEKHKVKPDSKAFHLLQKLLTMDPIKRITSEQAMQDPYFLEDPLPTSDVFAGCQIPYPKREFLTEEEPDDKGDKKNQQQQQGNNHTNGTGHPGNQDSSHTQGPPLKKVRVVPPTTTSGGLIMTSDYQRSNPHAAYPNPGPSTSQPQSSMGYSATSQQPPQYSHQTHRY
Briefly: scanMAX kinase panel. The data set is classed as binding. Conditions: read-out: % Control; for remaining binding at 1 µM: 1000 nM.
Text: as §1, §2

The target in another data set is T7, FLT3 (Homo sapiens, UniProt P36888).
T7 sequence (P36888 27-993): T4 sequence (P36888 27-993 D835H) with H809D
Put plainly: scanMAX kinase panel. Type of data set: binding. On the set-up: purchased DiscoverX scanMAX. Conditions: read-out: % Control; for remaining binding at 1 µM: 1000 nM.
Text: as §1, §2

For the next data set, the system named is 786-O RCC xenografts. Briefly: 786-O ccRCC tumor xenograft study. The data set is classed as in vivo. The note with it: for tolerability by body weight measurement / tumor growth inhibition: 30 mg/kg BID oral, 29 days. The procedure: In vivo studies of the effect of pyrrolopyrimidines on 786-O xenograft inhibition follow a method published elsewhere. Female BALB/c nude mice were inoculated subcutaneously with 786-O tumor cells (5 × 10^6) in 0.1 mL of PBS. Animals were randomized when tumors reached 100–200 mm^3 into treatment groups. […] Tumor volumes were measured by caliper and the volume was expressed in mm^3 using the formula: V = (L × W × W)/2, where V, L, and W represent tumor volume, length, and width, respectively. All studies were conducted following an IACUC-approved protocol (AN-1903-05-1798). Experimental data management and reporting were in accordance with applicable Crown Bioscience’s Guidelines and Standard Operating Procedures.

Each structure is given as a SMILES string. Where a chain is given by its changes, count along the chain named.

T5 sequence (Q9UBF8 whole entry): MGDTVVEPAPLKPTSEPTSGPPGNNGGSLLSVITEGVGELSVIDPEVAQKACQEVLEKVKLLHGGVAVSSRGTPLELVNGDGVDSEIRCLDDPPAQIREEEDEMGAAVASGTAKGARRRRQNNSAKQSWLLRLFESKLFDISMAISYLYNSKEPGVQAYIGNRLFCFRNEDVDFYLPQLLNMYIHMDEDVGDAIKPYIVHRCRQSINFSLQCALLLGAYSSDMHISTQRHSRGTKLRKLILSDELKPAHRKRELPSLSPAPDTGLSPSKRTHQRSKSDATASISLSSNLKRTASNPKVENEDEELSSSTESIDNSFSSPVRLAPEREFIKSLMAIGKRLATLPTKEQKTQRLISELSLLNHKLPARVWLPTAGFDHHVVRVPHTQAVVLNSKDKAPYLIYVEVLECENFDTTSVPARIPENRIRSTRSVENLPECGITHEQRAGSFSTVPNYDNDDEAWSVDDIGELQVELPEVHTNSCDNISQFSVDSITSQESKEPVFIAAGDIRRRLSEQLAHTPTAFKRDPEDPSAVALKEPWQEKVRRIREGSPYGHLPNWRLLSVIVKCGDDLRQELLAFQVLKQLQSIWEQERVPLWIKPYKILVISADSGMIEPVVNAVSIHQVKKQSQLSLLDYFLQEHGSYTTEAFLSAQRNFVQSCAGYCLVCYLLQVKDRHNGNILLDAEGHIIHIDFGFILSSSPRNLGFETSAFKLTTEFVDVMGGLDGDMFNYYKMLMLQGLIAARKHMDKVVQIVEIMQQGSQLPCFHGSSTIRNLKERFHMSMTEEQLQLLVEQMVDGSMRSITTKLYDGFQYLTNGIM
T1 sequence (P10721 26-976 L576P): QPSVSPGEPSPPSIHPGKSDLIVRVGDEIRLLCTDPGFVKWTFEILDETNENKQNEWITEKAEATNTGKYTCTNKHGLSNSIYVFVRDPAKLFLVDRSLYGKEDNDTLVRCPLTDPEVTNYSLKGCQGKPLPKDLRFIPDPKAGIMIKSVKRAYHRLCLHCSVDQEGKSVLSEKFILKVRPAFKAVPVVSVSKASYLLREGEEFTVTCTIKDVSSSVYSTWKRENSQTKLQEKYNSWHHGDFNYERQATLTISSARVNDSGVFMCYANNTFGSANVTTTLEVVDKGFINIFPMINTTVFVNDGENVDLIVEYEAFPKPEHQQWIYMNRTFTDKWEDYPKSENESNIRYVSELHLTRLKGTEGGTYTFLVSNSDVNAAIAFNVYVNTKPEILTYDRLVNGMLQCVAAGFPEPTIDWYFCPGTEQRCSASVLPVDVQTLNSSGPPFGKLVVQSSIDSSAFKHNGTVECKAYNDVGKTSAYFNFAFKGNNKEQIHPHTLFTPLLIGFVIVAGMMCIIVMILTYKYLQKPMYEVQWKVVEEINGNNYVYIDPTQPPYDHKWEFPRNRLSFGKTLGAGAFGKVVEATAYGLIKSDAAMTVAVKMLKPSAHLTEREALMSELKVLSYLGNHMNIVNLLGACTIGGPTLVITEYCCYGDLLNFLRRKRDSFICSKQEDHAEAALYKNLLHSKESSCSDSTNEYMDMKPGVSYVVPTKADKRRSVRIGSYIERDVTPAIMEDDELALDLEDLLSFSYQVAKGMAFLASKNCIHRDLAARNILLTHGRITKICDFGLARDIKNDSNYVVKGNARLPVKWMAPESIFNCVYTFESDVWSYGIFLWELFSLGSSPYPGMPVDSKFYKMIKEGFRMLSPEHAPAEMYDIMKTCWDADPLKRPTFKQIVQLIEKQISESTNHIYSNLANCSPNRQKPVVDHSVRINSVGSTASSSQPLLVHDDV

Consider `Cc1cc(NC(=O)[C@H](O)c2cccc(F)c2)ccc1-c1cn(C)c2ncnc(N)c12` [Compound 11, (R)-N-(4-(4-amino-7-methyl-7H-pyrrolo[2,3-d]pyrimidin-5-yl)-3-methylphenyl)-2-(3-fluorophenyl)-2-hydroxy acetamide], for which the remaining binding at 1 µM came to 36% at KIT(L576P); 24% on AURKB; 89% on PIK3CA(E542K); 33% at FLT3(D835H); 84% on PIK4CB; 2.5% on CDK8. Besides, at FLT3, the remaining binding at 1 µM came to 4.3%.

For `Cc1nc(N)c2c(-c3ccc(NC(=O)[C@H](O)c4cccc(F)c4)cc3C)cn(C)c2n1` [Compound 24], the remaining binding at 1 µM at KIT(L576P) came to 98%; at AURKB, 90%; on PIK3CA(E542K), 0.7%; on FLT3(D835H), 98%; at PIK4CB, 28%; on CDK8 it was 98%. Besides, the remaining binding at 1 µM on FLT3 stood at 66%. Besides, the “tolerability by body weight measurement” value with 786-O RCC xenografts is “well tolerated”. For the same molecule, the tumor growth inhibition result in the data set on 786-O RCC xenografts is reported as “significant tumor growth inhibition”.

`Cc1nc(N)c2c(-c3ccc(NC(=O)[C@H](O)c4cccc(C(F)(F)F)c4)cc3C)cn(C)c2n1` [Compound 26]: the remaining binding at 0.1 µM on KIT(L576P) (100 nM) stood at 85%; on AURKB (100 nM) it was 81%; at PIK3CA(E542K) (100 nM) it was 100%; at FLT3(D835H) (100 nM), 85%; on PIK4CB (100 nM) it was 93%; on CDK8 (100 nM), 100%. Besides, on FLT3 (100 nM), the remaining binding at 0.1 µM amounted to 41%. For the same molecule, the remaining binding at 1 µM at KIT(L576P) is 2.6%; at AURKB, 70%; on PIK3CA(E542K) it was 91%; at FLT3(D835H), 25%; on PIK4CB it was 4.3%; at CDK8, 57%. In addition, the remaining binding at 1 µM on FLT3 was found to be 0%. The “tolerability by body weight measurement” value in the data set on 786-O RCC xenografts is listed as “well tolerated”. In addition, the tumor growth inhibition entry with 786-O RCC xenografts is “significant tumor growth inhibition”. Moreover, in the data set with 786-O RCC xenografts (10 or 30 mg/kg, 28-day study period), the “effect on body weight” value is recorded as “No significant effects on body weght”. For the same molecule, the tumor volume result in the data set with 786-O RCC xenografts (10 or 30 mg/kg, 28 days) is reported as “significantly decreased tumor volume”.

Take `Cc1nc(N)c2c(-c3ccc(NC(=O)[C@H](O)c4cccc(F)c4)c(F)c3F)cn(C)c2n1` [Compound 70, (R)-N-(4-(4-amino-2,7-dimethyl-7H-pyrrolo[2,3-d]pyrimidin-5-yl)-2,3-difluorophenyl)-2-(3-fluorophenyl)-2-hydroxyacetamide]: in the data set on 786-O RCC xenografts, the “tolerability by body weight measurement” value is “well tolerated” and the tumor growth inhibition result is recorded as “significant tumor growth inhibition”.
